# Source: patent publication US7371560B2, “Photosynthetic hydrogen production” (priority 2003, dated 2008)
# Tests used:
# [1] = system: Chlamydomonas reinhardtii Stm6 cultures; assay: H2 production ± CCCP, Clark type hydrogen electrode, Stm6 cultures; format: cell-based
# Procedure: (§1) H2 concentrations were measured in the liquid phase and the gaseous head space above, both for WT and Stm6 cultures (cell density of OD750 nm=0.8). Dissolved H2 concentrations were measured in 1 liter dark-adapted cell cultures in TAP medium replete with, or depleted of, sulfur using a Clark type hydrogen electrode (Unisense PA2000, Denmark) upon white light illumination. H2 concentrations in the presence and absence of 5 μM carbonylcyanide m-chlorophenylhydrazone (CCCP) were measured using dark adapted cultures (1 h) before and after illumination (white light, 300 μmol m^−2·s^−1) The H2 concentration in the gaseous head space was measured using a mass spectrometer (Delta Finnigan MAT). Cell cultures were dark-adapted for 30 min in a weak vacuum to deplete the medium and headspace of O2 and H2, prior to illumination with continuous or pulsed (3.3 Hz frequency, 5 μs flashes; light intensity range of 15-3000 μmol·m^−2·s^−1) white light.
# [2] = system: Chlamydomonas reinhardtii WT cultures; assay: H2 production ± CCCP, Clark type hydrogen electrode, WT cultures; format: cell-based; details: CCCP added to WT culture
# Procedure: as §1
structure (smiles),measurement,setting,value
"N#CC(C#N)=NNc1cccc(Cl)c1 [CCCP, carbonylcyanide m-chlorophenylhydrazone]",period of increased H2 production with CCCP,"[1]; 5 μM CCCP, Stm6 culture",at least 30 min
same,"H2 production rate with CCCP, higher than in the WT","[1]; 5 μM CCCP, dark adapted cultures (1 h), white light 300 μmol m^−2·s^−1, relative to WT",~1500%
same,"H2 production rate in the presence of CCCP, times higher than the WT","[1]; Stm6 in the presence of CCCP, relative to WT",15 ×
same,effect of CCCP on H2 production,[2],hardly any effect
